# Reference: patent US8022072B2, “Azolylmethylidenehydrazine derivative and use thereof” (Kaken Pharmaceutical Co., Ltd., priority 2007, dated 2011)
# What was measured:
# [1] = test system: TNCB-induced dermatitis; experiment: 2,4,6-Trinitrochlorobenzene (TNCB)-induced dermatitis model, ear edema; assay type: in vivo, male BALB/c mouse; conditions: test compound 1 w/v % (FK506 0.1 w/v %), 20 μL applied to auricle, 24 hours after induction
# Procedure: (§1) The test compound was adjusted to 1 w/v % when in use with a solvent (acetone:olive oil=1:1, v/v)) and put to use. FK506 (control substance) was adjusted to 0.1 w/v % and used.
# The fur on the abdomen of male BALB/c mouse was shaved with a hair clipper, and 100 μL of 7 w/v % TNCB sensitizing liquid (solvent was acetone:olive oil=4:1, v/v) was applied. Six days after the sensitization, the thickness of the right auricle was measured with a micrometer (pre-value). After the measurement, 10 μL of 1 w/v % TNCB challenge liquid (solvent was acetone:olive oil=1:9, v/v) was applied to the inside of the right auricle to induce ear edema. About 5 minutes after the application of the challenge liquid, 20 μL of the test compound was applied to the outside of the auricle.
# After 24 hours from the induction of ear edema, the thickness of the right auricle was measured by a method similar to the pre-value (post-value). The difference between the post-value and the pre-value of ear edema by each test compound was determined, based on which the inhibition rate was calculated. The activity of each test compound was calculated with the ear edema inhibition rate of FK506 as 1.0 (ear edema inhibition rate of each test compound/ear edema inhibition rate of FK506).
# [2] = test system: OVA-induced dermatitis; experiment: Ovalbumin (OVA)-induced dermatitis model, ear edema; assay type: in vivo, male ICR mouse; parameters: key: ratio of compound's ear edema inhibition rate to FK506's (FK506 = 1.0); conditions: test compound 1 w/v % (FK506 0.1 w/v %), 20 μL applied to auricle, 24 hours after induction
# Procedure: as §1
# Male ICR mouse was sensitized by the administration of 0.2 mL of OVA-hydroxide aluminum gel suspension to the abdominal cavity. After 14 days from the sensitization, the thickness of the right auricle was measured with a micrometer (pre-value). After the measurement, 20 μL of 0.5 μg/mL OVA challenge liquid (solvent was physiological saline) was subcutaneously administered to the inside of the auricle to induce ear edema. About 5 minutes after the administration of the challenge liquid, 20 μL of the test compound was applied to the outside of the auricle. After 24 hours from the induction of ear edema, the thickness of the right auricle was measured by a method similar to the pre-value (post-value). The difference between the post-value and the pre-value of ear edema by each test compound was determined, based on which the inhibition rate was calculated. The activity of each test compound was calculated with the ear edema inhibition rate of FK506 as 1.0 (ear edema inhibition rate of each test compound/ear edema inhibition rate of FK506).
# [3] = test system: Trichophyton mentagrophytes KD-04; experiment: Antifungal activity evaluation test, MIC, Trichophyton mentagrophytes KD-04; assay type: cell-based; conditions: KD04, 168 h, Sabouraud Dextrose Broth, 30° C., 7 days, visual, read-out: MIC T. men. KD-04
# Procedure: (§2) The minimum inhibitory concentration (MIC) for Trichophyton mentagrophytes, Trichophyton rubrum, and Malassezia furfur was measured according to the following procedure. • Test compound solution: A test compound was dissolved in dimethyl sulfoxide (DMSO) at a concentration of 5 mg/mL as a stock solution. […] Then, as a test medium, a fungal solution of Trichophyton species was 100-fold diluted with Sabouraud Dextrose Broth (Difco), and a fungal solution of Malassezia furfur IFO-0656 was 100-fold diluted with MU medium to give each inoculum (2×10^4 cells/mL). • Measurement of MIC of Trichophyton fungi: Sabouraud Dextrose Broth (Difco) was dispensed by 100 μL to a given well of a 96 well flat microplate. Then, a test compound solution (2 μL) was added, and the mixture was thoroughly mixed with a plate mixer. A fungal solution (100 μL) was inoculated and cultured at 30° C. for 7 days. The presence or absence of the cell growth was visually observed, and the minimum medicament concentration at which the cell growth was prevented was taken as MIC (μg/mL). • Measurement of MIC of Malassezia furfur: Since the urease activity of this fungus and the fungus growth rate are co-related, MIC was evaluated by the following method using urease activity as an index. MU medium was dispensed by 100 μL to a given well of a 96 well flat microplate. Then, a test compound solution (2 μL) was added, and the mixture was thoroughly mixed with a plate mixer. A fungal solution (100 μL) was inoculated and cultured at 30° C. The culture was stopped on day 4 or 5 of culture when the color tone of the MU medium changes from yellow to red in visual observation of the fungus growth in a well free of addition of a test substance. Then the plate was stirred until the fungus became uniform, and the urease activity was measured based on the measurement of absorbance at 550 nm using a plate reader.
# [4] = test system: Trichophyton rubrum KD-107; experiment: Antifungal activity evaluation test, MIC, Trichophyton rubrum KD-107; assay type: cell-based; conditions: KD107, 168 h, Sabouraud Dextrose Broth, 30° C., 7 days, visual, read-out: MIC T. rub. KD-107
# Procedure: as §2
# [5] = test system: Malassezia furfur IFO-0656; experiment: Antifungal activity evaluation test, MIC by urease activity, Malassezia furfur IFO-0656; assay type: cell-based; conditions: IFO0656, 96 h, MU medium, 30° C., day 4 or 5, urease activity of 20% or below, read-out: MIC M. fur. IFO-0656
# Procedure: as §2
# [6] = test system: Trichophyton mentagrophytes KD-04; experiment: Influence of keratin addition on anti-Trichophyton activity; assay type: cell-based; conditions: Trichophyton mentagrophytes, KD04, 168 h, 30° C., 7 days
# Procedure: The MIC increase rate by the addition of keratin to a medium was measured by the following procedure. • Test compound solution: A test compound was dissolved in dimethyl sulfoxide (DMSO) at a concentration of 5 mg/mL as a stock solution. Diluting this solution with DMSO, a 2-fold dilution series was prepared. • Test strain: Trichophyton mentagrophytes KD-04 was used. Preparation of Fungal Inoculum: the Above-Mentioned Strain was suspended in 0.05% Tween 80-containing physiological saline, and adjusted to a fungus concentration of 2×10^6 cells/mL using a counting chamber. […] The physiological saline was removed, and the mixture was further washed once with physiological saline (3 mL). The physiological saline was removed, and a test compound solution (10 μL) and Sabouraud Dextrose Broth (Difco) (500 μL) were added to keratin, and the mixture was sufficiently stirred. Then, inoculum (500 μL) of T. mentagrophytes KD-04 was added, and the mixture was cultured at 30° C. for 7 days. As a comparison control, an experiment similar to the above was performed under conditions free of keratin addition.
# [7] = test system: Trichophyton mentagrophytes SM-110; experiment: Antifungal activity evaluation test, MIC, Trichophyton mentagrophytes SM-110; assay type: cell-based; conditions: SM110, 168 h, Sabouraud Dextrose Broth, 30° C., 7 days, visual, read-out: MIC T. men. SM-110
# Procedure: as §2
# [8] = test system: Trichophyton rubrum KD-101; experiment: Antifungal activity evaluation test, MIC, Trichophyton rubrum KD-101; assay type: cell-based; conditions: KD101, 168 h, Sabouraud Dextrose Broth, 30° C., 7 days, visual, read-out: MIC T. rub. KD-101
# Procedure: as §2
# [9] = T. mentagrophytes KD-04, free of keratin addition, read-out: MIC SDB alone
# [10] = T. mentagrophytes KD-04, keratin 50 mg added, read-out: MIC SDB + keratin
Compound,"TNCB-induced dermatitis, with ear edema inhibition rate of FK506 as 1.0 [1]","OVA-induced dermatitis, with ear edema inhibition rate of FK506 as 1.0 [2]",MIC [3] [µg/mL],MIC [4] [µg/mL],MIC [5] [µg/mL],"MIC [6, 9] [µg/mL]","MIC [6, 10] [µg/mL]",MIC [7] [µg/mL],MIC [8] [µg/mL]
"FC(F)(F)Oc1ccccc1C(=NN1CCCCCC1)n1ccnc1 [Compound No. 219, homopiperidin-1-yl-[1-imidazol-1-yl-1-(2-trifluoromethoxyphenyl)methylidene]amine]",0.6,1.1,–,–,–,–,–,–,–
"CN(C)N=C(c1cccn1Cc1ccccc1)n1ccnc1 [Compound No. 105, N′-[1-(1-benzylpyrrol-2-yl)-1-imidazol-1-ylmethylidene]-N,N-dimethylhydrazine]",–,–,0.2,0.2,25,0.39,0.78,0.39,0.2
"CCC(C)n1ncn(-c2ccc(N3CCN(c4ccc(OCC5COC(Cn6cncn6)(c6ccc(Cl)cc6Cl)O5)cc4)CC3)cc2)c1=O (stereo not shown) [ITCZ, itraconazole, reference compound]",–,–,0.1,0.05,0.05,0.05,25,0.2,0.1
"CCc1ccccc1C(=NN(C)C)n1ccnc1 [Compound No. 4, N′-[1-(2-ethylphenyl)-1-imidazol-1-ylmethylidene]-N,N-dimethylhydrazine]",–,–,0.39,0.78,> 25,0.39,0.78,0.78,0.78
"CCCOc1ccccc1C(=NN(C)C)n1ccnc1 [Compound No. 17, N′-[1-imidazol-1-yl-1-(2-propoxyphenyl)methylidene]-N,N-dimethylhydrazine]",–,–,0.2,0.2,3.13,0.05,0.1,0.39,0.2
"CCC(C)(C)c1ccc(CC(C)CN2C[C@@H](C)O[C@@H](C)C2)cc1 (stereo partly shown) [AMF, amorolfine, reference compound]",–,–,0.1,0.025,0.05,0.05,0.39,0.05,0.025
"CCSc1ccccc1C(=NN(C)C)n1ccnc1 [Compound No. 80, N′-[1-(2-ethylthiophenyl)-1-imidazol-1-ylmethylidene]-N,N-dimethylhydrazine]",–,–,0.2,0.39,12.5,0.78,0.78,0.78,0.39
"CCCCOc1ccccc1C(=NN(C)C)n1ccnc1 [Compound No. 23, N′-[1-(2-butoxyphenyl)-1-imidazol-1-ylmethylidene]-N,N-dimethylhydrazine]",–,–,0.1,0.1,0.39,0.1,0.2,0.2,0.1
"COc1ccc(OCCOc2ccccc2C(=NN(C)C)n2ccnc2)cc1 [Compound No. 69, N′-[1-imidazol-1-yl-1-[2-[2-(4-methoxyphenoxy)ethoxy]phenyl]methylidene]-N,N-dimethylhydrazine]",–,–,0.2,0.05,1.56,0.2,0.39,0.39,0.05
"C=CCOc1ccccc1C(=NN(C)C)n1ccnc1 [Compound No. 20, N′-[1-(2-allyloxyphenyl)-1-imidazol-1-ylmethylidene]-N,N-dimethylhydrazine]",–,–,0.2,0.1,12.5,0.1,0.2,0.39,0.1
"C/C=C\Oc1ccccc1C(=NN(C)C)n1ccnc1 [Compound No. 21, N′-[1-imidazol-1-yl-1-(2-(Z)-propenyloxyphenyl)methylidene]-N,N-dimethylhydrazine]",–,–,0.2,0.2,6.25,0.2,0.2,0.39,0.2
"CN(C)N=C(c1ccccc1OCCc1ccc(N(C)C)cc1)n1ccnc1 [Compound No. 60, N′-[1-imidazol-1-yl-1-[2-(4-dimethylaminophenethyloxy)phenyl]methylidene]-N,N-dimethylhydrazine]",–,–,0.2,0.1,0.2,0.1,0.2,0.39,0.2
"CN(C)N=C(c1ccccc1OC(F)(F)F)n1ccnc1 [Compound No. 32, N′-[1-imidazol-1-yl-1-(2-trifluoromethoxyphenyl)methylidene]-N,N-dimethylhydrazine]",–,–,0.2,0.39,6.25,0.1,0.2,0.78,0.39
"CN(C)N=C(c1ccccc1OC(F)(F)C(F)F)n1ccnc1 [Compound No. 33, N′-[1-imidazol-1-yl-1-[2-(1,1,2,2-tetrafluoroethoxy)phenyl]methylidene]-N,N-dimethylhydrazine]",–,–,0.78,0.39,6.25,0.39,0.39,1.56,0.78
"CCCSc1ccccc1C(=NN(C)C)n1ccnc1 [Compound No. 81, N′-[1-imidazol-1-yl-1-(2-propylthiophenyl)methylidene]-N,N-dimethylhydrazine]",–,–,0.2,0.2,3.13,0.39,0.39,0.39,0.39
